Data set [1] has as its system Madison (M109) lung carcinoma. The experiment in a line: Madison lung metastasis assay. The data set is classed as in vivo, male BALB/C mice. On the procedure: In addition, the compounds of this invention have found utility as angiogenesis inhibitors in metastatis formation. Such activity has been found in an artificial metastasis model using Madison lung (M 109) carcinoma which metastasizes preferentially to lungs and is not overly sensitive to chemotherapeutic agents. The test is carried out as follows.
The Madison (M109) lung carcinoma is carried as a transplantable line in syngeneic BALB/C mice. This tumor line was obtained from the tumor bank at Mason Research Institute, Worcester, Mass. For tumor metastasis studies, a subcutaneously-grown tumor is aseptically excised, minced into small pieces with a scissors, and gently trypsinized at room temperature to obtain a single cell suspension. The cells are suspended in RPMI-1640 medium (M. A. Bioproducts, Walkersville, MD). Viable M109 cells are determined by trypan blue exclusion, and the cell concentration is determined with a hemocytometer. The cells are adjusted to 1×10^5 viable cells/ml. of medium. M109 cells are injected i.v. into normal, male BALB/C mice. Inoculum volume per mouse is 0.2 ml. (2×10^4 cells). Drugs are administered i.p. to randomized groups of 10 mice 2 days prior to tumor cell inoculation. Controls receive mock injections of 0.5 ml. buffer. Daily mortality is monitored, and median survival times are determined for each group. Cytoxan was employed as a positive control. In the Table, column 1 gives drug treatment and columns 2 and 3 measures number of lesions±standard error per lung on days 30 and 42.
The growth rate and number of lung metastases in the above experiment were less than usual. A new transplant line was employed in a second determination with lung lesions developing earlier. Table 6 records the results of this experiment; here ascorbic acid was employed as the control drug.

A further data set in a line: pKa by titration. The data set is classed as physicochemical. The following applies: for pKa: read-out: pKa.
Data set [2] concerns paw swelling caused by Type II collagen. The experiment in a line: Collagen arthritis assay (type II collagen-induced paw swelling). The data set is classed as in vivo, inbred Lewis male rats. Particulars: for decrease in paw swelling caused by collagen Type II injection: 15 mg./kg. per os. On the procedure:
This test method is a collagen arthritis assay carried out as follows. Type II collagen is isolated from bovine articular cartilage by the method of […] and Nimni [Biochemistry, 10, 3905, (1971)]. The collagen is dissolved in 0.1M acetic acid and stored at -20°. Type II collagen solution is diluted to 2 mg./ml. concentration and emulsified thoroughly with an equal volume of incomplete Freund's adjuvant (ICFA). The emulsion containing approximately 0.5 mg. of collagen is injected intradermally to groups of 6 inbred Lewis male rats (Charles River Breeders; 170-200 g.) at various sites in the dorsal area. The hindpaw volumes of each rat is measured and recorded three times a week throughout the test period to assess the inflammatory reaction. The animals receive compounds under test as suspensions in carboxymethylcellulose vehicle, by oral gavage, 5 days per week (Mon.-Fri.). At the end of the test (day 28 or 30), the blood of these animals is drawn by cardiac puncture and the serum anti-type II collagen antibody levels are estimated by passive hemagglutination technique, using glutaraldehyde treated sheep red cells, to which type II collagen is conjugated [[…] et al., Immunochemistry, 6, 67,1969); Andriopoulos et al., Arth. Rheum., 19, 613, (1976)]. The cellular response or delayed-type hypersensitivity response to type II collagen is measured by the radiometric ear index assay (Kostiala, Immunology, 33, 561, 1977). In certain experiments, the bone damage occurring because of immunization with type II collagen and the effects of drugs are determined from the radiographs of the hindpaws of two or three representative animals from each group. Injections of ICFAs alone were employed to some rats as a negative control.

The test system of a further data set is angiogenesis factor. The experiment in a line: Inhibition of angiogenesis factor (3683 Morris hepatoma lysosomal-mitochondrial pellet) induced serpentine vessels in mice. The data set is classed as in vivo, mice (SPF/ND4 female). The following applies: Mus musculus, ip; for inhibition in vivo at 25 mg/kg: i.p., 24 hours. On the procedure:
Lysosomal-mitochondrial pellets containing angiogenesis factor are prepared from 3683 Morris hepatoma. The pellet is diluted with 7-8 ml. of 15% ficoll. With this dilution, 8-10 serpentine vessels will be produced per 0.2 cc. injection as described below for the control group.
Next, 15 SPF/ND4 female mice weighing 20-22 g. are shaved on the left side and then divided into three groups of five each. One group (drug group) is injected subcutaneously and laterally with 0.20 cc. of the lysosomal-mitochondrial preparation diluted with 15% ficoll. This group of mice is then dosed individually by the intraperitoneal route with 0.5 cc. of a solution or suspension in a standard vehicle containing the compound under test, usually at an initial dose level of 300 mg./kg. If this dose level is toxic, two-fold dilutions are made until all mice survive a single dose. The second group of mice (control group) is injected subcutaneously and laterally with 0.2 cc. of the lysosomal-mitochondrial suspension diluted with 15% ficoll and dosed intraperitoneally with 0.5 cc. of the vehicle alone. The third group (negative control) is injected with ficoll solution only (no treatment with drug or vehicle). The mice are sacrificed after 24 hours. Each mouse is placed on its side on a dissecting board with the shaved side up. Starting at the flank, the skin is cut straight to the back of the animal. A similar cut is made behind the front leg. Then the skin is cut along the back making a flap of about one inch by two inches. The skin is carefully separated from the connective tissue using forceps and a scalpel. The skin flap is then laid back exposing the lysosomal-mitochondrial implant which is attached to the skin. The skin flap is gently flattened out and with the use of a binocular dissecting scope, serpentine vessels are observed around the lysosomal-mitochondrial implant and their number counted. All observations of the number of serpentine vessels are made at the same power of the microscope (1X). The average number of serpentine vessels for each group is calculated. The percent inhibition is then calculated according to the following equation. [formula] where sv=average number of serpentine vessels.
If the negative control group described above has any serpentine vessels, the test is invalid due to contamination of the ficoll solution.
Table I covers compounds according to formula I above in which R^2 and R^3 are both H, table II covers compounds in which R^2 and R^3 form a 1-methylethylidene group, and Table III compounds in which R^2 plus R^3 equal a benzylidene group or other group.
One of the compounds of this invention, 3-O-n-octadecyl-5,6-O-(1-methylethylidene)-L-ascorbic acid was tested at a series of dose levels for its ability to inhibit tumor angiogenesis and the results of these tests are set forth in Table IV.

The test system of a further data set is Vitamin C activity. The following applies: orally in aqueous solution; Bezssonoff and Sacrez 1937; cited from earlier work.

By pKa is commonly meant the negative logarithm of the acid dissociation constant.

Read-outs that look alike come from different tables or passages of the source.

Regarding `O=P1(N(CCCl)CCCl)NCCCO1` (stereo not drawn) [Cytoxan, reference compound], the “Mean No. of Lesions ± S.E./Lung” value in data set [1] (Table 5, Day 30, 30 mg./kg. i.p. every 4th day starting on day 12, Emulphor control 15.8 ± 4.6) worked out at 8.4 ± 1.5 Lesions/Lung.

For `O=C1O[C@H]([C@@H](O)CO)C(O)=C1O` [ascorbic acid], the “Mean No. of Lesions ± S.E./Lung” value in data set [1] (Table 6, 16 day, new transplant line, 100 mg./kg., Emulphor control 69.8 ± 10.4) was 33.8 ± 9.6 Lesions/Lung.

With `CC1(C)OC[C@@H]([C@H]2OC(=O)C(O)=C2OCCCCC#N)O1` [3-O-(4-cyanobutyl)-5,6-O-(1-methylethylidene)-L-ascorbic acid], the pKa in “pKa by titration” is 10.4. The “decrease in paw swelling caused by collagen Type II injection” value (“decrease in paw swelling caused” below) in data set [2] is listed as “substantial decreases in paw swelling”. `CC1(C)OC[C@@H]([C@H]2OC(=O)C(OCc3ccc(C#N)cc3)=C2OCc2ccc(C#N)cc2)O1` [2,3-bis(O-4-cyanobenzyl)-5,6-O-(1-methylethylidene)-L-ascorbic acid]: in the data set with angiogenesis factor (24 h, Table 2, read-out: % inhibition (serpentine vessels)), the inhibition in vivo at 25 mg/kg was in the range of 36 to 91%. For the same molecule, the titratable group result in “pKa by titration” was “No titratable groups”. The “decrease in paw swelling caused” value in data set [2] is “substantial decreases in paw swelling”.

In the case of `CCCCCCCCCCC1(C)OC[C@@H]([C@H]2OC(=O)C(O)=C2O)O1` (stereo partly drawn) [5,6-O-(1-n-decylethylidene)-L-ascorbic acid], the “decrease in paw swelling caused” value in data set [2] is listed as “substantial decreases in paw swelling”.

Regarding `CCCCCCCCCCCCCCCCCOC1=C(O)C(=O)O[C@@H]1[C@@H](O)CO` [3-O-n-heptadecyl-L-ascorbic acid], the “decrease in paw swelling caused” value in data set [2] is recorded as “substantial decreases in paw swelling”. In the case of `CC1(C)OC[C@@H]([C@H]2OC(=O)C(O)=C2OCCN2C(=O)c3ccccc3C2=O)O1` [3-O-(2-phthalimidoethyl)-5,6-O-(1-methylethylidene)-L-ascorbic acid], the inhibition in vivo at 120 mg/kg in the data set on angiogenesis factor (24 h, Table 2, dose 120 mg./kg.) is 30%. Further, the pKa in “pKa by titration” came to 10.3.

In the data set on angiogenesis factor (24 h, Table 2), `CC1(C)OC[C@@H]([C@H]2OC(=O)C(O)=C2OCCCOc2ccccc2)O1` [3-O-(3-phenoxypropyl)-5,6-O-(1-methylethylidene)-L-ascorbic acid] gave an inhibition in vivo at 150 mg/kg of 36%. In addition, the pKa in “pKa by titration” was found to be 10.7.

Regarding `O=C1O[C@H]([C@@H](O)CO)C(OCc2cccc(C(F)(F)F)c2)=C1O` [3-O-(3-trifluoromethylbenzyl)-L-ascorbic acid], the “paw volumes vs ICFA controls” value in data set [2] (25 mg./kg.) is reported as “substantially the same as ICFA controls”. For `CCCCCCCCCCCCCCCCCCOC1=C(OCCCCCCCCCCCCCCCCCC)[C@@H]([C@@H](O)CO)OC1=O` [2,3-di-(-O-n-octadecyl)-L-ascorbic acid], in the data set on angiogenesis factor (24 h, Table 1, read-out: average % inhibition (serpentine vessels)), the inhibition in vivo at 25 mg/kg turned out to be 52%. The “decrease of paw volumes” value in data set [2] (12.5 and 25 mg./kg.) is recorded as 33-67%. The molecule `CC1(C)OC[C@@H]([C@H]2OC(=O)C(O)=C2OCc2ccc([N+](=O)[O-])cc2)O1` [3-O-(4-nitrobenzyl)-5,6-O-(1-methylethylidene)-L-ascorbic acid] came in with an inhibition in vivo at 150 mg/kg with angiogenesis factor (24 h, Table 2) of 42 to 85%. Further, in “pKa by titration”, the pKa turned out to be 10.1. Molecule `CC1(C)OC[C@@H]([C@H]2OC(=O)C(OCc3ccc(F)cc3)=C2OCc2ccc(F)cc2)O1` [2,3-O-bis(4-fluorobenzyl)-5,6-O-(1-methylethylidene)-L-ascorbic acid] gave an inhibition in vivo at 37.5 mg/kg in the data set with angiogenesis factor (24 h, Table 2, dose 37.5 mg./kg.) of 45%. Besides, the titratable group entry in “pKa by titration” is recorded as “No titratable group”. `COC1=C(OC)C(C(O)CO)OC1=O` (stereo not drawn) [2,3-dimethylascorbic acid]: the “Vitamin C activity” value in the data set on Vitamin C activity is recorded as “devoid of Vitamin C activity”. As to `CCCCCCCCCCCCCCCCCCOC1=C(O)C(=O)O[C@@H]1[C@@H]1COC(C)(C)O1` [3-O-n-octadecyl-5,6-O-(1-methylethylidene)-L-ascorbic acid], the inhibition in vivo at 30 mg/kg with angiogenesis factor (Table 4, intraperitoneal dose 30 mg./kg., individual results) was 58%. Also, in the data set on angiogenesis factor (Table 4, intraperitoneal dose 120 mg./kg., individual results), the inhibition in vivo at 120 mg/kg worked out at 66%. For the same molecule, the inhibition in vivo at 240 mg/kg with angiogenesis factor (Table 4, intraperitoneal dose 240 mg./kg., individual results) is 71%. In the data set “pKa by titration”, the pKa is 11.4. In addition, the “paw volumes vs negative control levels” value in data set [2] (50 mg./kg., other runs) is given as “indistinguishable from negative control levels”. For the same molecule, the “inhibition of the swelling of the paw” value in data set [2] (oral 50 mg./kg., one experiment) is listed as “about 50%”.

Source of the values: US4552888A, “Ascorbic acid ethers in angiogene” (Eli Lilly and Company, priority 1983, dated 1985).
